Measurements as given in US6509328B1, “Glutamate receptor antagonists” (Hoffmann-La Roche Inc., priority 1999, dated 2003).

melting point	SMILES
209 to 213 °C (dec.)	N#Cc1ccc(-c2ccc3c(c2)NC(=O)CC(c2cccc(-n4ccnc4)c2)=N3)cc1 [Example 66, 4-[2-(3-Imidazol-1-yl-phenyl)-4-oxo-4,5-dihydro-3H-benzo [b][1,4]diazepin-7-yl]-benzonitrile]
237 to 240 °C (dec.)	N#Cc1cccc(C2=Nc3ccc(C#Cc4ccc(Cl)cc4)cc3NC(=O)C2)c1 [Example 16, 3-[7-(4-Chloro-phenylethynyl)-4-oxo-4,5-dihydro-3H-benzo[b][1,4]diazepin-2-yl]-benzonitrile]
267 to 270 °C (dec.)	NC(=S)c1cccc(C2=Nc3ccc(-c4ccc(F)cc4)cc3NC(=O)C2)c1 [Example 149, 3-[7-(4-Fluoro-phenyl)-4-oxo-4,5-dihydro-3H-benzo [b][1,4]diazepin-2-yl]-thiobenzamide]
228 to 233 °C (dec.)	N#Cc1cccc(C2=Nc3ccc(-c4ccoc4)cc3NC(=O)C2)c1 [Example 14, 3-(7-Furan-3-yl-4-oxo-4,5-dihydro-3H-benzo[b][1,4]diazepin-2-yl)-benzonitrile]
198 °C	O=C1CC(c2cccc(-n3cnnc3)c2)=Nc2ccc(-c3ccccc3F)cc2N1 [Example 99, 8-(2-Fluoro-phenyl)-4-(3-[1,2,4]triazol-4-yl-phenyl)-1,3-dihydro-benzo [b][1,4]diazepin-2-one]
240 to 246 °C	N#Cc1cccc(C2=Nc3ccc(C#Cc4ccc(F)cc4F)cc3NC(=O)C2)c1 [Example 130, 3-[7-(2,4-Difluoro-phenylethynyl)-4-oxo-4,5-dihydro-3H-benzo [b][1,4]diazepin-2-yl]-benzonitrile]
> 250 °C (dec.)	C#Cc1cccc(C2=Nc3ccc(C#Cc4ccccc4)cc3NC(=O)C2)c1 [Example 133, 4-(3-Ethynyl-phenyl)-8-phenylethynyl-1,3-dihydro-benzo[b][1,4]diazepin-2-one]
238 to 245 °C (dec.)	O=C1CC(c2cccc(-c3nc(C(=O)NCCO)cs3)c2)=Nc2ccc(-c3ccc(F)cc3)cc2N1 [Example 161, 2-{3-[7-(4-Fluoro-phenyl)-4-oxo-4,5-dihydro-3H-benzo [b][1,4]diazepin-2-yl]-phenyl}-thiazole-4-carboxylic Acid (2-hydroxy-ethyl)-amide]
237 to 241 °C (dec.)	N#Cc1cccc(C2=Nc3ccc(-c4ccc(OC(F)(F)F)cc4)cc3NC(=O)C2)c1 [Example 43, 3-[4-Oxo-7-(4-trifluoromethoxy-phenyl)-4,5-dihydro-3H-benzo [b][1,4]diazepin-2-yl]-benzonitrile]
204 to 209 °C	N#Cc1cccc(C2=Nc3ccc(C4CC4)cc3NC(=O)C2)c1 [Example 111, 3-(7-Cyclopropyl-4-oxo-4,5-dihydro-3H-benzo [b][1,4]diazepin-2-yl)-benzonitrile]
238 to 240 °C	N#Cc1ccsc1C1=CC(=O)Nc2cc(-c3ccccc3F)ccc2N1 [Example 84, 2-[7-(2-Fluoro-phenyl)-4-oxo-4,5-dihydro-1H-benzo [b][1,4]diazepin-2-yl]-thiophene-3-carbonitrile]
208 °C (dec.)	O=C1CC(c2cccc(Cl)c2)=Nc2ccc(-c3ccccc3)cc2N1 [Example 19, 4-(3-Chloro-phenyl)-8-phenyl-1,3-dihydro-benzo[b][1,4]diazepin-2-one]
239 to 240 °C (dec.)	N#Cc1cccc(C2=Nc3ccc(C#Cc4ccccc4Cl)cc3NC(=O)C2)c1 [Example 4, 3-[7-(2-Chloro-phenylethynyl)-4-oxo-4,5-dihydro-3H-benzo[b][1,4]diazepin-2-yl]-benzonitrile]
243 to 244 °C (dec.)	N#Cc1cccc(C2=Nc3ccc(-c4ccccn4)cc3NC(=O)C2)c1 [Example 28, 3-(4-Oxo-7-pyridin-2-yl-4,5-dihydro-3H-benzo [b][1,4]diazepin-2-yl)-benzonitrile]
> 250 °C	O=C1CC(c2cccs2)=Nc2ccc(-c3ccc(=O)[nH]c3)cc2N1 [Example 41, 8-(6-Oxo-1,6-dihydro-pyridin-3-yl)-4-thiophen-2-yl-1,3-dihydro-benzo [b][1,4]diazepin-2-one]
252 to 255 °C (dec.)	N#Cc1cccc(C2=Nc3ccc(-c4ccc(Cl)c(Cl)c4)cc3NC(=O)C2)c1 [Example 31, 3-[7-(3,4-Dichloro-phenyl)-4-oxo-4,5-dihydro-3H-benzo [b][1,4]diazepin-2-yl]-benzonitrile]
189 to 190 °C	COCSc1nccn1-c1cccc(C2=Nc3ccc(-c4ccccc4F)cc3NC(=O)C2)c1 [Example 102, 8-(2-Fluoro-phenyl)-4-[3-(2-methoxymethylsulfanyl-imidazol-1-yl)-phenyl]-1,3-dihydro-benzo[b][1,4]diazepin-2-one]
228 to 229 °C	O=C1CC(c2cccc([N+](=O)[O-])c2)=Nc2ccc(C#Cc3ccccc3)cc2N1 [Example 56, 4-(3-Nitro-phenyl)-8-phenylethynyl-1,3-dihydro-benzo [b][1,4]diazepin-2-one]
220 to 222 °C	O=C1CC(c2cccc(-c3noc(CCCO)n3)c2)=Nc2ccc(-c3ccc(F)cc3)cc2N1 [Example 168, 8-(4-Fluoro-phenyl)-4-{3-[5-(3-hydroxy-propyl)-[1,2,4]oxadiazol-3-yl]-phenyl}-1,3-dihydro-benzo[b][1,4]diazepin-2-one]
246 to 248 °C	O=C1CC(c2cccc(-n3ccnn3)c2)=Nc2ccc(C#Cc3ccc(F)cc3)cc2N1 [Example 115, 8-(4-Fluoro-phenylethynyl)-4-(3-[1,2,3]triazol-1-yl-phenyl)-1,3-dihydro-benzo[b][1,4]diazepin-2-one]
247 °C	N#Cc1cccc(C2=Nc3ccc(-c4cc(F)ccc4F)cc3NC(=O)C2)c1 [Example 125, 3-[7-(2,5-Difluoro-phenyl)-4-oxo-4,5-dihydro-3H-benzo [b][1,4]diazepin-2-yl]-benzonitrile]
225 to 229 °C	O=C1CC(c2ccnc(-c3nc(CO)cs3)c2)=Nc2ccc(-c3ccc(F)cc3)cc2N1 [Example 158, 8-(4-Fluoro-phenyl)-4-[2-(4-hydroxymethyl-thiazol-2-yl)-pyridin-4-yl]-1,3-dihydro-benzo[b][1,4]diazepin-2-one]
255 to 256 °C	O=C1CC(c2sccc2Cl)=Nc2ccc(-c3ccc(F)cc3)cc2N1 [Example 91, 4-(3-Chloro-thiophen-2-yl)-8-(4-fluoro-phenyl)-1,3-dihydro-benzo [b][1,4]diazepin-2-one]
184 °C	N#Cc1cccc(C2=Nc3ccc(C#CC4=CCNCC4)cc3NC(=O)C2)c1 [Example 140, 3-[4-Oxo-7-(1,2,3,6-tetrahydro-pyridin-4-ylethynyl)-4,5-dihydro-3H-benzo [b][1,4]diazepin-2-yl]-benzonitrile]
213 to 214 °C	N#Cc1cccc(C2=Nc3ccc(C#Cc4ccccc4F)cc3NC(=O)C2)c1 [Example 131, 3-[7-(2-Fluoro-phenylethynyl)-4-oxo-4,5-dihydro-3H-benzo[b][1,4]diazepin-2-yl]-benzonitrile]
213 °C (dec.)	O=C1CC(c2ccnc(-n3ccnc3)c2)=Nc2ccc(-c3ccc(F)cc3)cc2N1 [Example 69, 8-(4-Fluoro-phenyl)-4-(2-imidazol-1-yl-pyridin-4-yl)-1,3-dihydro-benzo [b][1,4]diazepin-2-one]
